Test system: patients with ischemic strokes
Experiment: Phase 2 clinical study of spray in patients with ischemic strokes
Format: in vivo, human
Details: for LCCA (far-wall): Maximal IMT of left common carotid artery / LCCA (near-wall): Maximal IMT of left common carotid artery / LICA (far-wall): Maximal IMT of left internal carotid artery / LICA (near-wall): Maximal IMT of left internal carotid artery / RCCA (far-wall): Maximal IMT of right common carotid artery / RCCA (near-wall): Maximal IMT of right common carotid artery / RICA (far-wall): Maximal IMT of right internal carotid artery / RICA (near-wall): Maximal IMT of right internal carotid artery: ultrasonography
Method: Each patient enrolled in Group A was administered the investigational drug in a double-blind manner for 16 weeks starting between 3 and 60 days after the onset of stroke symptoms (Day 1 of the study). The patients and/or their caregivers were instructed how to apply the investigational drug accurately so that patients or their caregivers would administer 20 sprays/dose of either the investigational drug or placebo twice daily (approximately every 12 hours) for a total daily dose of 280 mg of investigational drug. The 20 sprays of investigational drug were administered as follows: 4 sprays around the neck, 2 sprays to the left shoulder, 2 sprays to the right shoulder, 6 sprays to the chest, 3 sprays to the left leg, and 3 sprays to the right leg. Each spray was sprayed on a different area of the skin to reach maximum absorption. The patient would wait for at least 5 minutes to dress after the last spray so that the skin became completely dry.
Patients were asked to return to the study site at Weeks 4, 8, 12, and 16 for efficacy and safety assessments. After the Week 16 assessments had been performed, patients would start the open-label period of the study the next day and receive active treatment in an open-label manner through the end of the study (EOS) at Week 32. That is, patients who were receiving active treatment would continue to receive active treatment, and patients who were receiving placebo would switch to active treatment for the remaining 16 weeks of the study. Patients would receive only 1 dose of investigational drug on the Week 16 visit day. Patients would return to the study site at Week 24 and Week 32 (EOS) for efficacy and safety assessments. An Early Termination visit would occur if the patient was discontinued from the study prematurely. Patients would have a follow-up visit approximately 14 days after the Early Termination visit or the Week 32 (EOS) visit.
The spray bottle deposits […] of spray solution and 7 mg 2-(diethylamino)ethyl acetoxybenzoate free base per spray on the skin. Subjects were to apply each spray to a different skin area around the neck, chest, legs and arms based on the randomized dose level assigned.
The treatment was administered twice daily (approximately every 12 hours) starting on Day 1 of the study through the Week 16 visit. Each spray was sprayed on a different area of the skin to reach maximum absorption.
Group A administered the 20 sprays of investigational drug as follows: 4 sprays around the neck, 2 sprays to the left shoulder, 2 sprays to the right shoulder, 6 sprays to the chest, 3 sprays to the left leg, and 3 sprays to the right leg twice daily for a total of 40 sprays (280 mg)/day. Each spray was sprayed on a different area of the skin to reach maximum absorption.
(§1) Group B administered the investigational drug as follows: 2 sprays to the front of the neck, 1 spray to the left side of the neck, 1 spray to the right side of the neck, 6 sprays to the chest close to the neck twice daily for a total of 20 sprays (140 mg)/day. Each spray was sprayed on a different area of the skin to reach maximum absorption.
as §1, with “C” for “B”, “1 spray” for “2 sprays”, “2” for “6”, “chest” for “chest close to the neck”, “10” for “20”, “(70 mg/day).” for “(140 mg)/day.”
The primary efficacy endpoint is the mRS score at Week 16 dichotomized as ‘success’ (0 to 2) or failure (>2) for all randomized patients at Week 16.
The mRS score was assessed at screening; Day 1 (baseline); Weeks 4, 8, 12, 16, 24, and 32; Early Termination Visit (if applicable) and Follow-Up Visit.
The mRS score measures the patient's functional level of activity and is dichotomized as a favorable outcome (score=0-2) versus unfavorable (score […]). […]

[1] = 5 Sprays (35 mg/dose bid), Baseline
[2] = 5 Sprays (35 mg/dose bid), Week 4
[3] = 5 Sprays (35 mg/dose bid), Week 8
[4] = 5 Sprays (35 mg/dose bid), Week 16
[5] = 5 Sprays (35 mg/dose bid), Week 24
[6] = 5 Sprays (35 mg/dose bid), Week 32
[7] = 5 Sprays (35 mg/dose bid), baseline
[8] = 10 Sprays (70 mg/dose bid), Baseline
[9] = 10 Sprays (70 mg/dose bid), Week 4
[10] = 10 Sprays (70 mg/dose bid), Week 8
[11] = 10 Sprays (70 mg/dose bid), Week 16

SMILES: CCN(CC)CCOC(=O)c1ccccc1OC(C)=O.Cl [Compound-1]
- safety and tolerability (35 mg, 70 mg, and 140 mg BID, topical spray): safe and were generally well tolerated
- LCCA (far-wall): Maximal IMT of left common carotid artery [1]: 6.2 ± 1.6 mm
- LCCA (near-wall): Maximal IMT of left common carotid artery [1]: 7.3 ± 2.0 mm
- LICA (far-wall): Maximal IMT of left internal carotid artery [1]: 5.3 ± 1.3 mm
- LICA (near-wall): Maximal IMT of left internal carotid artery [1]: 6.3 ± 2.1 mm
- RCCA (far-wall): Maximal IMT of right common carotid artery [1]: 7.1 ± 2.2 mm
- RCCA (near-wall): Maximal IMT of right common carotid artery [1]: 6.9 ± 2.1 mm
- RICA (far-wall): Maximal IMT of right internal carotid artery [1]: 4.1 ± 1.4 mm
- RICA (near-wall): Maximal IMT of right internal carotid artery [1]: 4.7 ± 1.5 mm
- Modified Rankin Scale Score (mRS) [2]: 3.1 ± 0.5
- National Institute of Health Stroke Scale [2]: 5.5 ± 1.7
- Modified Rankin Scale Score (mRS) [3]: 2.9 ± 0.3
- National Institute of Health Stroke Scale [3]: 5.3 ± 1.5
- Modified Rankin Scale Score (mRS) [4]: 2.7 ± 0.5
- National Institute of Health Stroke Scale [4]: 4.1 ± 1.0
- LCCA (far-wall): Maximal IMT of left common carotid artery [4]: 2.7 ± 1.4 mm
- LCCA (near-wall): Maximal IMT of left common carotid artery [4]: 2.3 ± 1.3 mm
- LICA (far-wall): Maximal IMT of left internal carotid artery [4]: 1.5 ± 1.1 mm
- LICA (near-wall): Maximal IMT of left internal carotid artery [4]: 1.6 ± 1.3 mm
- RCCA (far-wall): Maximal IMT of right common carotid artery [4]: 2.5 ± 1.1 mm
- RCCA (near-wall): Maximal IMT of right common carotid artery [4]: 2.1 ± 0.9 mm
- RICA (far-wall): Maximal IMT of right internal carotid artery [4]: 1.6 ± 0.9 mm
- RICA (near-wall): Maximal IMT of right internal carotid artery [4]: 1.5 ± 1.2 mm
- Modified Rankin Scale Score (mRS) [5]: 2.5 ± 0.5
- National Institute of Health Stroke Scale [5]: 3.4 ± 0.8
- Modified Rankin Scale Score (mRS) [6]: 2.4 ± 0.5
- National Institute of Health Stroke Scale [6]: 2.9 ± 0.6
- LCCA (far-wall): Maximal IMT of left common carotid artery [6]: 2.5 ± 0.7 mm
- LCCA (near-wall): Maximal IMT of left common carotid artery [6]: 2.1 ± 0.7 mm
- LICA (far-wall): Maximal IMT of left internal carotid artery [6]: 1.3 ± 0.7 mm
- LICA (near-wall): Maximal IMT of left internal carotid artery [6]: 1.2 ± 1.0 mm
- RCCA (far-wall): Maximal IMT of right common carotid artery [6]: 2.6 ± 0.9 mm
- RCCA (near-wall): Maximal IMT of right common carotid artery [6]: 2.3 ± 0.8 mm
- RICA (far-wall): Maximal IMT of right internal carotid artery [6]: 1.1 ± 0.7 mm
- RICA (near-wall): Maximal IMT of right internal carotid artery [6]: 1.2 ± 0.6 mm
- Modified Rankin Scale Score (mRS) [7]: 3.5 ± 0.5
- National Institute of Health Stroke Scale [7]: 6.0 ± 2.2
- LCCA (far-wall): Maximal IMT of left common carotid artery [8]: 7.1 ± 1.7 mm
- LCCA (near-wall): Maximal IMT of left common carotid artery [8]: 7.0 ± 1.5 mm
- LICA (far-wall): Maximal IMT of left internal carotid artery [8]: 5.8 ± 1.5 mm
- LICA (near-wall): Maximal IMT of left internal carotid artery [8]: 6.1 ± 1.3 mm
- RCCA (far-wall): Maximal IMT of right common carotid artery [8]: 7.9 ± 2.1 mm
- RCCA (near-wall): Maximal IMT of right common carotid artery [8]: 7.2 ± 1.7 mm
- RICA (far-wall): Maximal IMT of right internal carotid artery [8]: 4.3 ± 1.5 mm
- RICA (near-wall): Maximal IMT of right internal carotid artery [8]: 5.1 ± 1.2 mm
- Modified Rankin Scale Score (mRS) [9]: 2.5 ± 0.5
- National Institute of Health Stroke Scale [9]: 4.9 ± 1.5
- Modified Rankin Scale Score (mRS) [10]: 2.0 ± 0.5
- National Institute of Health Stroke Scale [10]: 3.7 ± 1.1
- Modified Rankin Scale Score (mRS) [11]: 1.6 ± 0.5
- National Institute of Health Stroke Scale [11]: 2.3 ± 0.8
- LCCA (far-wall): Maximal IMT of left common carotid artery [11]: 1.8 ± 0.7 mm
- LCCA (near-wall): Maximal IMT of left common carotid artery [11]: 1.3 ± 0.7 mm
- LICA (far-wall): Maximal IMT of left internal carotid artery [11]: 0.7 ± 0.3 mm
- LICA (near-wall): Maximal IMT of left internal carotid artery [11]: 0.9 ± 0.5 mm
- RCCA (far-wall): Maximal IMT of right common carotid artery [11]: 1.5 ± 0.6 mm
- RCCA (near-wall): Maximal IMT of right common carotid artery [11]: 1.6 ± 0.8 mm
- RICA (far-wall): Maximal IMT of right internal carotid artery [11]: 0.8 ± 0.3 mm
